Measured values taken from the Deep4Chem optical property database.
Values belong to the molecule of their own block, whether it stands above or below them.

Experiment: solvent given as SMILES

absorption maximum (in CC#N): 391 nm
absorption maximum (in CO): 395 nm
absorption maximum (in ClCCl): 399 nm
Compound: CCOC(=O)c1ccc(O)c(-c2[nH]c(=O)n3c2-c2ccccc2C3=O)c1

absorption maximum (in CC1CCCO1): 475 nm
Compound: COc1c(Br)c2cc(=O)oc3ccc4cccc1c4c32

absorption maximum (in C1CCCCC1): 294 nm
Compound: c1ccc2[nH]ncc2c1

absorption maximum (in ClC(Cl)Cl): 505 nm
Compound: CO[B-]1(OC)n2c(C)cc(C)c2C(c2ccc(I)cc2)=C2C(C)=CC(C)=[N+]21

absorption maximum (in ClCCl): 352 nm
Compound: CN(C)c1ccc(C#Cc2ccc(-c3cc(N(C)C)c4ccccc4c3)cc2)cc1

absorption maximum (in ClCCl): 334 nm
Compound: COc1ccc(C(=O)NC(C)(C)C)c2c1ccc1c3ccccc3c3ccccc3c12

absorption maximum (in CC#N): 362 nm
absorption maximum (in CCCCCC): 362 nm
Compound: C(=C\c1ccc(N(c2ccccc2)c2ccccc2)cc1)/c1ccccc1

absorption maximum (in ClCCl): 314 nm
Compound: Clc1ccccc1N1c2sc3ccccc3c2Sc2sc3ccccc3c21

absorption maximum (in ClCCl): 334 nm
Compound: CC(C)(C)NC(=O)c1ccc(F)c2ccc3c4ccccc4c4ccccc4c3c12

absorption maximum (in CC#N): 501 nm
absorption maximum (in CCCCCC): 506 nm
absorption maximum (in CO): 503 nm
absorption maximum (in ClC(Cl)Cl): 509 nm
absorption maximum (in ClCCl): 506 nm
Compound: CC1=CC(C)=[N+]2C1=C(c1ccc3cccnc3n1)c1c(C)cc(C)n1[B-]2(F)F

absorption maximum (in C1CCCCC1): 328 nm
Compound: CCCC1(CCC)c2cc(-c3ccc(C(C)(C)CC)cc3)ccc2-c2ccc(-c3ccc(C(C)(C)CC)cc3)cc21

absorption maximum (in C1CCOC1): 411.11 nm
Compound: CCN(CC)c1ccc(-c2nc3c4ccccc4n(C)c3nc2-c2ccc([B-](F)(c3c(C)cc(C)cc3C)c3c(C)cc(C)cc3C)cc2)cc1

absorption maximum (in ClCCl): 580 nm
Compound: COc1ccc(-c2c3cc4ccccc4cc3c(C#Cc3ccccc3)c3cc4cc(C)sc4cc23)cc1

absorption maximum (in CCO): 564 nm
absorption maximum (in ClCCl): 565 nm
Compound: Cc1ccccc1-c1c2ccc(=[N+]3CCCCC3)cc-2oc2cc(N3CCCCC3)ccc12

absorption maximum (in CS(C)=O): 373 nm
Compound: O=C1CCCC2=C1C(c1cccc(Cl)c1)c1c(c3ccccc3oc1=O)N2 (centres undefined)

absorption maximum (in CO): 295 nm
Compound: Cc1ccc(-c2nc(-c3ccc(O)cc3)[nH]c2-c2ccc(C)cc2)cc1

absorption maximum (in CCCCCCC): 469 nm
Compound: c1ccc2cc3c(cc2c1)-c1cccc2cc4ccccc4c-3c12

absorption maximum (in ClC(Cl)Cl): 684 nm
Compound: CN1C(=CC2=C([O-])C(=CC3=[N+](C)c4ccccc4C3(C)C)C2=C(C#N)C#N)C(C)(C)c2ccccc21

absorption maximum (in CCOC(C)=O): 392 nm
Compound: C[Si](C)(C)c1cc2c(cc3ccc4cccc5ccc2c3c45)[nH]1

absorption maximum (in ClC(Cl)Cl): 363 nm
Compound: Fc1ccc(C2=NC(c3ccccc3)C(N(c3ccccc3)c3ccccc3)S2)cc1 (centres undefined)

absorption maximum (in CC#N): 356 nm
absorption maximum (in ClCCl): 358 nm
Compound: Cc1cc(O)c(C(=O)/C=C/c2ccccc2)c(=O)o1

absorption maximum (in C1COCCO1): 326 nm
absorption maximum (in CC#N): 325 nm
absorption maximum (in CCCCCC): 343 nm
absorption maximum (in CCCCCCC): 344 nm
absorption maximum (in CCCO): 329 nm
absorption maximum (in CCOC(C)=O): 326 nm
absorption maximum (in CS(C)=O): 334 nm
absorption maximum (in ClC(Cl)Cl): 329 nm
absorption maximum (in ClCCl): 331 nm
Compound: COc1ccc(C#Cc2ccc(C#N)cc2)cc1OC

absorption maximum (in CC#N): 276 nm
absorption maximum (in CO): 274 nm
absorption maximum (in O): 275 nm
Compound: CN(C)CCCN1c2ccccc2CCc2ccccc21

absorption maximum (in C1CCOC1): 386 nm
Compound: CC(=O)c1ccc(-c2cnc3nn4ccccc4c3c2)cc1

absorption maximum (in ClCCl): 349 nm
Compound: c1ccc(N(c2ccccc2)c2ccc(-c3ccc(-c4nc(-c5ccccn5)n(-c5ccccc5)n4)cc3)cc2)cc1

absorption maximum (in C1CCOC1): 380 nm
Compound: [O-]c1ccccc1/C=N/c1ccccc1/N=C/c1ccccc1[O-]

absorption maximum (in CC#N): 532 nm
absorption maximum (in CCCCCC): 559 nm
absorption maximum (in CO): 552 nm
Compound: COc1ccc2c(c1)N(c1ccccc1-c1ccccc1)c1cc3c(cc1=N2)Oc1c(cc(C(C)(C)C)cc1C(C)(C)C)N=3

absorption maximum (in ClC(Cl)Cl): 421 nm
Compound: F[B-]1(F)OC(c2ccc(N3CCCCC3)cc2)=Cc2cccc[n+]21

absorption maximum (in ClCCl): 397 nm
Compound: Cc1cccc(C)c1N1C(c2ccccc2)=Cc2cccc[n+]2[B-]1(F)F

absorption maximum (in ClCCl): 400 nm
Compound: O=[N+]([O-])c1ccc2nc3cc4ccccc4cc3c(-c3ccccc3)c2c1

absorption maximum (in ClCCl): 542 nm
Compound: CCCCCCOc1cc(C=C2C(=C(C#N)C#N)c3ccccc3C2=C(C#N)C#N)c(OCCCCCC)cc1C=C1C(=C(C#N)C#N)c2ccccc2C1=C(C#N)C#N

Further lines, the molecule ahead of its results:

Compound: FC(F)(F)c1ccc(/C2=C3N=C(C(c4ccccc4)=C/3c3ccccc3)/C(c3ccc(C(F)(F)F)cc3)=c3\[nH]/c(c(-c4ccccc4)c3-c3ccccc3)=C(/c3ccc(C(F)(F)F)cc3)C3=N/C(=C(/c4ccc(C(F)(F)F)cc4)c4[nH]c2c(-c2ccccc2)c4-c2ccccc2)C(c2ccccc2)=C3c2ccccc2)cc1
absorption maximum (in ClCCl): 708 nm

Compound: COC(=O)c1cc(/N=N/c2cc3c4c(c2)CCCN4CCC3)cc(C(=O)OC)c1
absorption maximum (in CCOC(C)=O): 471 nm

Compound: CC(=O)c1ccc2ccc3c(NCCC(=O)NCCCCCCc4nc5c(=O)[nH]c(N)nc5n4[C@H]4C[C@H](O)[C@@H](CO)O4)ccc4ccc1c2c43
absorption maximum (in C1CCOC1): 451 nm
absorption maximum (in CC#N): 440 nm
absorption maximum (in CC(C)O): 452 nm
absorption maximum (in CCO): 451 nm
absorption maximum (in CN(C)C=O): 452 nm
absorption maximum (in CO): 447 nm
absorption maximum (in CS(C)=O): 456 nm
absorption maximum (in O): 460 nm
absorption maximum (in OCC(O)CO): 464 nm

Compound: O=C1c2ccc(N(c3ccc(-c4ccccc4)cc3)c3ccc(-c4ccccc4)cc3)cc2C(=O)c2ccc(N(c3ccc(-c4ccccc4)cc3)c3ccc(-c4ccccc4)cc3)cc21
absorption maximum (in Cc1ccccc1): 464 nm

Compound: O=CC1=Cc2cocc2C=C(C=O)C1
absorption maximum (in ClC(Cl)Cl): 303 nm

Compound: O=c1c2cccc3cccc(c32)c2nc3c(F)c(F)c(F)c(F)c3n12
absorption maximum (in ClCCl): 382 nm

Compound: c1ccc2c(c1)CCc1ccccc1N2c1c2ccccc2cc2ccccc12
absorption maximum (in Cc1ccccc1): 426 nm

Compound: CC(C)[Si](C#Cc1c2nc3ccccc3nc2c(C#C[Si](C(C)C)(C(C)C)C(C)C)c2nc3c4ccccc4c(=O)c4ccccc4c3nc12)(C(C)C)C(C)C
absorption maximum (in ClCCl): 603 nm

Compound: CCCCC(CC)CN1C(=O)c2cccc3c(C#Cc4ccc(N(c5ccccc5)c5ccccc5)cc4)ccc(c23)C1=O (centres undefined)
absorption maximum (in C1CCCCC1): 422 nm
absorption maximum (in C1CCOC1): 434 nm
absorption maximum (in CC#N): 433 nm
absorption maximum (in Cc1ccccc1): 438 nm
absorption maximum (in ClC(Cl)Cl): 450 nm

Compound: CC[n+]1ccc2ccccc2c1/C=C/c1c([O-])ccc2ccc(=O)oc12
absorption maximum (in C1CCOC1): 629.86 nm
absorption maximum (in CC#N): 591.03 nm
absorption maximum (in CC(C)=O): 603.44 nm
absorption maximum (in CO): 535.64 nm
absorption maximum (in CS(C)=O): 593.42 nm
absorption maximum (in Cc1ccccc1): 655.01 nm
absorption maximum (in ClC(Cl)Cl): 614.58 nm
absorption maximum (in ClCCl): 614.58 nm
absorption maximum (in O): 491.71 nm

Compound: O=[N+]([O-])c1ccc(S(=O)(=O)Nc2ccc(C#Cc3ccc4ccc5ccc(C#Cc6ccc(NS(=O)(=O)c7ccc([N+](=O)[O-])cc7[N+](=O)[O-])cc6)c6ccc3c4c56)cc2)c([N+](=O)[O-])c1
absorption maximum (in CO): 402 nm

Compound: CC(=O)c1c2c(cc3ccc(N(C)C)cc13)CCC2
absorption maximum (in C1CCCCC1): 373 nm
absorption maximum (in C1CCOC1): 377 nm
absorption maximum (in C1COCCO1): 376 nm
absorption maximum (in CC#N): 375 nm
absorption maximum (in CCO): 377 nm
absorption maximum (in CS(C)=O): 377 nm
absorption maximum (in Cc1ccccc1): 376 nm
absorption maximum (in ClC(Cl)Cl): 377 nm
absorption maximum (in ClCCl): 377 nm

Compound: CC(C)(C)c1ccc2c(c1)c1cc(C(C)(C)C)ccc1n2-c1ccc(-c2nc(-c3ccc(P(=O)(c4ccccc4)c4ccccc4)cc3)nc(-c3ccc(P(=O)(c4ccccc4)c4ccccc4)cc3)n2)cc1
absorption maximum (in C1CCOC1): 364.73 nm
absorption maximum (in CC#N): 361.43 nm
absorption maximum (in CC(C)=O): 366.18 nm
absorption maximum (in CN(C)C=O): 365.92 nm
absorption maximum (in Cc1ccccc1): 375.96 nm
absorption maximum (in ClC(Cl)Cl): 435.78 nm
absorption maximum (in ClCCl): 375.3 nm

Compound: C[Si](C)(C)c1sc([Si](C)(C)C)c2c1sc1c2sc2sc3sc4c(sc5c([Si](C)(C)C)sc([Si](C)(C)C)c54)c3c21
absorption maximum (in ClC(Cl)Cl): 332 nm

Compound: CCCCC(CC)CO[N+](=O)[O-] (centres undefined)
absorption maximum (in CO): 218 nm
absorption maximum (in O): 198 nm

Compound: O=Cc1nc2ccc(C#Cc3ccc(N(c4ccccc4)c4ccccc4)cc3)cc2s1
absorption maximum (in Cc1ccccc1): 412 nm

Compound: CC1(C)c2ccccc2N(c2ccc(-c3cc(-c4ccccc4)nc(-c4ccccc4)n3)cc2)c2ccccc21
absorption maximum (in Cc1ccccc1): 374.95 nm

Compound: COc1ccc(-c2c3ccc([nH]3)c3nc(c(-c4ccc([N+](=O)[O-])cc4)c4ccc([nH]4)c4ccc([nH]4)c(-c4ccc(OC)cc4)c4ccc2o4)C=C3)cc1
absorption maximum (in C1CCOC1): 446 nm
absorption maximum (in Cc1ccccc1): 448 nm
absorption maximum (in c1ccccc1): 448 nm

Compound: Cc1cc2c(o1)c(C)cc1ccc(=O)oc12
absorption maximum (in C1CCCCC1): 330 nm
absorption maximum (in C1COCCO1): 315 nm
absorption maximum (in CC#N): 315 nm
absorption maximum (in CCO): 305 nm
absorption maximum (in OCC(F)(F)F): 310 nm

Compound: Cc1ccc2c(c1)C1(c3ccccc3-c3ccccc31)c1cc(C)ccc1N2c1ccc2c(c1)Sc1ccccc1P2(=S)c1ccccc1 (centres undefined)
absorption maximum (in Cc1ccccc1): 311.25 nm

Compound: c1ccc(N2c3ccccc3Sc3cc(-c4cccc5nc6ccccc6cc45)ccc32)cc1
absorption maximum (in C1CCOC1): 407 nm
absorption maximum (in CC#N): 407 nm
absorption maximum (in CC(C)=O): 407 nm
absorption maximum (in CC(C)OC(C)C): 407 nm
absorption maximum (in CCCCCC): 407 nm
absorption maximum (in CCCCOCCCC): 407 nm
absorption maximum (in CCN(CC)CC): 407 nm
absorption maximum (in CCOC(C)=O): 407 nm
absorption maximum (in CCOCC): 407 nm
absorption maximum (in CN(C)C=O): 407 nm
absorption maximum (in ClCCl): 407 nm

Compound: F[B-]1(F)n2c(c3cccc4cccc2c43)=Nc2cccc[n+]21
absorption maximum (in C1CCOC1): 468 nm
absorption maximum (in CC#N): 460 nm
absorption maximum (in CCCCCC): 473 nm
absorption maximum (in Cc1ccccc1): 472 nm
absorption maximum (in ClCCl): 438 nm

Compound: CCC1=C(C)C(=O)n2c1cc1[nH]c(C(=O)OC(C)(C)C)c(C)c1c2=O
absorption maximum (in C1CCCCC1): 392 nm
absorption maximum (in CO): 397 nm
absorption maximum (in CS(C)=O): 397 nm
absorption maximum (in ClC(Cl)Cl): 397 nm
absorption maximum (in c1ccccc1): 396 nm
